Test [1] has as its target Glutamate receptor ionotropic, NMDA 1 (Rattus norvegicus, UniProt P35439). Put plainly: Inhibition of [3H]glycine to glycine binding site, associated with the N-methyl-D-aspartate glutamate receptor 1 in crude synaptic membranes prepared from adult rat cerebral cortex. In kind it is cell membranes.
The test system of test [2] is Mus musculus. As to the kind of experiment: Effective dose to inhibit convulsions induced by NMDA in mice, when administered intravenous route. In kind it is functional.
In test [3] the test system is Mus musculus. Put plainly: Effective dose to inhibit convulsions induced by NMDA in mice, when administered peroral route. In kind it is functional. The conditions noted are these: po.
In test [4] the target is Glutamate receptor ionotropic, NMDA 1 (Rattus norvegicus) (UniProt P35439). As to the kind of experiment: Antagonistic activity by using [3H]TCP radioligand (non competitive inhibition) at strychnine-insensitive N-methyl-D-aspartate glutamate receptor 1.

The structures appear in SMILES notation.

A word on the Ki: it is the equilibrium dissociation constant of an inhibitor or competing ligand from its target. A high value points to weaker binding. For `O=C(/C=C/c1c(C(=O)O)[nH]c2cc(Cl)cc(Cl)c12)Nc1ccc(C(F)(F)F)cc1`, affinity in test [1] was put at a Ki of 158 nM. On the same count and under the same terms, under `O=C(/C=C/c1c(C(=O)O)[nH]c2cc(Cl)cc(Cl)c12)Nc1ccc(F)cc1[N+](=O)[O-]` stands 31.6 nM; under `O=C(O)c1[nH]c2cc(Cl)cc(Cl)c2c1/C=C/S(=O)(=O)Nc1ccccc1`, 794 nM.

Turning to `Nc1ccc(NC(=O)/C=C/c2c(C(=O)O)[nH]c3cc(Cl)cc(Cl)c23)cc1`, in test [1], the affinity corresponds to a Ki of 1.26 nM.

`O=C(/C=C/c1c(C(=O)O)[nH]c2cc(Cl)cc(Cl)c12)Nc1cccc(O)c1` gave a Ki in test [1] of 3.98 nM. In test [1], `O=C(/C=C/c1c(C(=O)O)[nH]c2cc(Cl)cc(Cl)c12)Nc1ccc([N+](=O)[O-])cc1` gave an inhibitory constant (Ki) of 100 nM.

As for `O=C(/C=C/c1c(C(=O)O)[nH]c2cc(Cl)cc(Cl)c12)Nc1ccc(C(=O)O)cc1`, the affinity in test [1] corresponds to a Ki of 63.1 nM. The same measure, in the same setting: under `O=C(/C=C/c1c(C(=O)O)[nH]c2cc(Cl)cc(Cl)c12)Nc1cccc([N+](=O)[O-])c1O` stands 10 nM; under `O=C(/C=C/c1c(C(=O)O)[nH]c2cc(Cl)cc(Cl)c12)Nc1ccccc1[N+](=O)[O-]`, 25.1 nM. Broadly, the ED50 is the midpoint of the dose-response relation. Consider `O=C(CCc1c(C(=O)[O-])[nH]c2cc(Cl)cc(Cl)c12)Nc1ccccc1.[Na+]`, for which the ED50 in the test on Mus musculus [2] turned out to be 3.7 mg/kg. In test [1], affinity was put at a Ki of 25.1 nM.

For the compound `O=C(/C=C/c1c(C(=O)[O-])[nH]c2cc(Cl)cc(Cl)c12)NCc1ccccc1.[Na+]`, the ED50 in the test with Mus musculus [3] was over 200 mg/kg; in the test on Mus musculus [2] it was over 30 mg/kg. This compound also had a Ki in test [1] of 126 nM.

`O=C(O)c1cc2c(Cl)cc(Cl)cc2[nH]1`: in test [1], the affinity corresponds to a Ki of 2000 nM. The same measure, in the same setting: next, `CC(C)(C)OC(=O)/C=C/c1c(C(=O)O)[nH]c2cc(Cl)cc(Cl)c12`: 501 nM; `Nc1cccc(NC(=O)/C=C/c2c(C(=O)O)[nH]c3cc(Cl)cc(Cl)c23)c1`: 5.01 nM.

With `Nc1ccccc1NC(=O)/C=C/c1c(C(=O)O)[nH]c2cc(Cl)cc(Cl)c12`, the inhibitory constant (Ki) in test [1] is 3.16 nM. Still for that read-out and setting: next, `O=C(/C=C/c1c(C(=O)O)[nH]c2cc(Cl)cc(Cl)c12)Nc1ccc(F)cc1`: 6.31 nM; `CC(C)c1ccccc1NC(=O)/C=C/c1c(C(=O)O)[nH]c2cc(Cl)cc(Cl)c12`: 50.1 nM. What is called pA2 is a measure of antagonist potency on a negative log scale. Low readings indicate lower antagonist potency, high ones higher antagonist potency. As for `O=C(/C=C/c1c(C(=O)[O-])[nH]c2cc(Cl)cc(Cl)c12)Nc1ccccc1.[Na+]` [GAVESTINEL SODIUM], the ED50 was 6 mg/kg in the test with Mus musculus [3] and 0.06 mg/kg with Mus musculus [2]. The same compound showed a Ki in test [1] of 3.16 nM. For the same compound, in test [4], the pA2 amounted to 8.1.

For `COc1ccc(NC(=O)/C=C/c2c(C(=O)O)[nH]c3cc(Cl)cc(Cl)c23)c(C)c1`, in test [1], the Ki is 20 nM. Same read-out and setting: under `CN(C)c1ccc(NC(=O)/C=C/c2c(C(=O)O)[nH]c3cc(Cl)cc(Cl)c23)cc1` stands 12.6 nM.

The compound `O=c1[nH]c2cc(Cl)c(Cl)c([N+](=O)[O-])c2[nH]c1=O` [LICOSTINEL] displayed an ED50 in the test on Mus musculus [2] of 0.21 mg/kg. The same compound had a Ki in test [1] of 7.94 nM. `O=C(O)/C=C/c1c(C(=O)[O-])[nH]c2cc(Cl)cc(Cl)c12.[Na+]`: the ED50 with Mus musculus [3] was over 200 mg/kg; in the test on Mus musculus [2], 17.2 mg/kg. In addition, the affinity in test [1] corresponds to a Ki of 20 nM. As for `NC(=O)Nc1ccc(NC(=O)/C=C/c2c(C(=O)O)[nH]c3cc(Cl)cc(Cl)c23)cc1`, in test [1], the Ki is 1.58 nM. In the test with Mus musculus [2], `O=c1[nH]c2cc(Cl)ccc2c(O)c1-c1cccc(Oc2ccccc2)c1` registered an ED50 of 0.78 mg/kg. The inhibitory constant (Ki) in test [1] was 1 nM.

Consider `O=C(/C=C/c1c(C(=O)O)[nH]c2cc(Cl)cc(Cl)c12)Nc1cccc([N+](=O)[O-])c1F`, for which, in test [1], the Ki was 5.01 nM.

Take `O=C(/C=C/c1c(C(=O)O)[nH]c2cc(Cl)cc(Cl)c12)Nc1ccc(Nc2ccccc2)cc1`: in test [1], the Ki is 200 nM. Compound `CCN(CC)c1ccc(NC(=O)/C=C/c2c(C(=O)O)[nH]c3cc(Cl)cc(Cl)c23)cc1` had a Ki in test [1] of 100 nM. Consider `O=C(/C=C/c1c(C(=O)O)[nH]c2cc(Cl)cc(Cl)c12)Nc1ccc(O)cc1`, for which the affinity in test [1], expressed as Ki, was 2 nM.

With `O=C(Nc1ccccc1)N[C@H]1C[C@H](C(=O)O)Nc2cc(Cl)cc(Cl)c21`, the ED50 in the test on Mus musculus [2] turned out to be 0.21 mg/kg. In addition, the Ki in test [1] is 6.31 nM. `O=C(/C=C/c1c(C(=O)O)[nH]c2cc(Cl)cc(Cl)c12)Nc1ccc(Cl)c([N+](=O)[O-])c1`: the Ki in test [1] is 126 nM. The compound `O=C(O)CCc1c(C(=O)[O-])[nH]c2cc(Cl)cc(Cl)c12.[Na+]` had an ED50 with Mus musculus [2] of over 10 mg/kg. This compound also gave a Ki in test [1] of 39.8 nM.

For the origin of these results see ChEMBL document CHEMBL1129966, “Substituted indole-2-carboxylates as in vivo potent antagonists acting as the strychnine-insensitive glycine binding site” (J Med Chem, 1997).
